Experiments:
progression of myopia = conditions: 0.5 percent drops instilled one time per day; cited from earlier work
[1] = Drug release from drug loaded lenses into PBS; assay type: physicochemical; conditions: 34 degrees C
Experimental: Five drug loaded lenses, all together, were placed into 1 mL of phosphate buffered saline (PBS) and placed in a shaking water bath at thirty-four (34) degrees C. Samples were taken at regular intervals and replaced with fresh PBS. Release samples were analyzed spectrophotometrically to determine the concentration. As well, the nature of the peaks was also examined to determine whether there were any changes relative to the control samples (freshly prepared drug in appropriate buffer solutions). Drug loading and release was controlled using different loading concentrations to determine whether the release rate of the drug could be altered by changing simply or easily controlled conditions. Various drug concentrations were examined. In the case of 1 DAM, AT in ethanol and water (1:1) at various concentrations was examined or utilized. For the ATSM release from ATE lenses, the lenses were removed from the loading solution and rinsed to remove loosely physically adsorbed drug. For the 1 DAM lenses, the lenses were dried to remove any residual ethanol and rehydrated prior to the release study.
To establish drug release concentrations, five drug loaded lenses were placed into 1 ml of phosphate buffered saline (PBS) solution and placed in a shaking water bath at 34° C. […] Samples of solution were analyzed spectrophotometrically to determine the concentration of the released drug.

SMILES | efficacy in slowing the progression of myopia (progression of myopia) | release of drug from 1 DAM lenses ([1]; 1 DAM lenses, FIG. 5) | release rate from ATE lenses as compared to 1 DAM lenses ([1]; ATE lenses, FIG. 7)
CN1[C@@H]2CC[C@H]1C[C@@H](OC(=O)C(CO)c1ccccc1)C2 (stereo partly drawn) [Atropine, atropine] | show efficacy in slowing the progression of myopia | – | –
CN1[C@@H]2CC[C@H]1C[C@@H](OC(=O)C(CO)c1ccccc1)C2 (stereo partly drawn) [ATSM, atropine sulphate monohydrate] | – | release more quickly in greater amounts | somewhat lower release rate
